Measurements: patent US12570666B2, “Furoindazole derivatives” (Bayer Aktiengesellschaft, priority 2019, dated 2026)

Biological target: T1, human GPR84 receptor (Homo sapiens, UniProt Q9NQS5)
T1 construct: frozen aliquots prepared by acCELLerate; host or cells: CHO-K1
Assay: cAMP HTRF assay for identification of cellular GPR84 antagonists
Type: cell-based
Conditions: CHO-K1 cells stably expressing human GPR84; Forskolin + agonist 6-OAU (EC80); average or median values
Outline: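 IC50 came from 4-parameter fits over 20 μM–0.07 nM (11 points, duplicate), normalized between DMSO (0%) and agonist-free (100% inhibition) wells. Readout: cAMP-d2/Eu-cryptate HTRF in hGPR84 CHO-K1 cells given forskolin plus agonist, compound preincubated 30 min at room temperature.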

T1 sequence (Q9NQS5 whole entry): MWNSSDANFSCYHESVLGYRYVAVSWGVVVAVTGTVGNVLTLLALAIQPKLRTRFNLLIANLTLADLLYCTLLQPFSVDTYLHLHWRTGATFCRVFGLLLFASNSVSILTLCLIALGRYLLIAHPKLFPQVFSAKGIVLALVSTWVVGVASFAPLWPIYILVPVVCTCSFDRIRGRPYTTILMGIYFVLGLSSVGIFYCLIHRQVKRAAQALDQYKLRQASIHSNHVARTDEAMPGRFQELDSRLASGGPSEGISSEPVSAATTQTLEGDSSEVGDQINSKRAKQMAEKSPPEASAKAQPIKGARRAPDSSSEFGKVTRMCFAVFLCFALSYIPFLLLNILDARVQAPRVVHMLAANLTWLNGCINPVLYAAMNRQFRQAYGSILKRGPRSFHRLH

Row | IC50 | SMILES
1 | 11 nM | O=C(NC[C@@H]1CCCO1)c1oc2c(c1C(F)(F)F)-c1nn(CC3CCN(C(=O)C4CC4)CC3)cc1CC2 [Example 286, 2-{[1-(cyclopropanecarbonyl)piperidin-4-yl]methyl}-N-{[(2S)-oxolan-2-yl]methyl}-8-(trifluoromethyl)-4,5-dihydro-2H-furo[2,3-g]indazole-7-carboxamide]
2 | 92 nM | Cc1c(C(=O)NCC2CC3(CC3)CO2)oc2c1-c1nn(Cc3ccccn3)cc1CC2 (racemic) [Example 178]
3 | 9 nM | O=C(NC[C@@H]1COCCO1)c1oc2c(c1C(F)(F)F)-c1nn(Cc3ccccn3)cc1C1(CCC1)C2 [Example 273, N-[(2R)-1,4-Dioxan-2-ylmethyl]-2′-(pyridin-2-ylmethyl)-8′-(trifluormethyl)-2′,5′-dihydrospiro[cyclobutan-1,4′-furo[2,3-g]indazol]-7′-carboxamide]
4 | 10 nM | Cc1ccc(Cn2cc3c(n2)-c2c(oc(C(=O)NC[C@@H]4COCCO4)c2C(F)(F)F)CC32CCC2)nc1 [Example 278, N-[(2R)-1,4-Dioxan-2-ylmethyl]-2′-[(5-methylpyridin-2-yl)methyl]-8′-(trifluormethyl)-2′,5′-dihydrospiro[cyclobutan-1,4′-furo[2,3-g]indazol]-7′-carboxamide]
5 | 6 nM | O=C(NC[C@@H]1CCCO1)c1oc2c(c1C(F)(F)F)-c1nn(Cc3ccncc3)cc1C1(CC1)C2 [Example 217, 2′-(Pyridin-4-ylmethyl)-N-[(2S)-tetrahydrofuran-2-ylmethyl]-8′-(trifluormethyl)-2′,5′-dihydrospiro[cyclopropan-1,4′-furo[2,3-g]indazol]-7′-carboxamide]
6 | 156 nM | Cn1ccc(CNC(=O)c2oc3c(c2C(F)(F)F)-c2nn(Cc4ccccn4)cc2C2(CCC2)C3)n1 [Example 276, N-[(1-Methyl-1H-pyrazol-3-yl)methyl]-2′-(pyridin-2-ylmethyl)-8′-(trifluormethyl)-2′,5′-dihydrospiro[cyclobutan-1,4′-furo[2,3-g]indazol]-7′-carboxamide]
7 | 24 nM | C[C@@H]1Cc2oc(C(=O)NC[C@@H]3COCCO3)c(C(F)(F)F)c2-c2nn(CC3CCN(C(=O)C4(C)CC4)CC3)cc21 (single isomer, unassigned) [Example 299, (4R or 4S)-N-{[(2R)-1,4-dioxan-2-yl]methyl}-4-methyl-2-{[1-(1-methylcyclopropane-1-carbonyl)piperidin-4-yl]methyl}-8-(trifluoromethyl)-4,5-dihydro-2H-furo[2,3-g]indazole-7-carboxamide]
8 | 62 nM | O=C(NC[C@@H]1CCCO1)c1oc2c(c1C(F)(F)F)-c1nn(CC3CCN(CC4CC4)CC3)cc1CC2 [Example 307, 2-{[1-(cyclopropylmethyl)piperidin-4-yl]methyl}-N-{[(2S)-oxolan-2-yl]methyl}-8-(trifluoromethyl)-4,5-dihydro-2H-furo[2,3-g]indazole-7-carboxamide]
9 | 38 nM | O=C(NCc1cnccn1)c1oc2c(c1C(F)(F)F)-c1nn(C[C@H]3COCCO3)cc1CC2 [Example 228, 2-[(2S)-1,4-Dioxan-2-ylmethyl]-N-(pyrazin-2-ylmethyl)-8-(trifluormethyl)-4,5-dihydro-2H-furo[2,3-g]indazol-7-carboxamide]
10 | 2 nM | C[C@@H]1Cc2oc(C(=O)NCc3cnc(C4CC4)cn3)c(C(F)(F)F)c2-c2nn(C[C@H]3COCCO3)cc21 (single isomer, unassigned) [Example 322, (4R or 4S)—N-[(5-cyclopropylpyrazin-2-yl)methyl]-2-{[(2S)-1,4-dioxan-2-yl]methyl}-4-methyl-8-(trifluoromethyl)-4,5-dihydro-2H-furo[2,3-g]indazole-7-carboxamide]
11 | 5 nM | C[C@@H]1Cc2oc(C(=O)NCc3nccs3)c(C(F)(F)F)c2-c2nn(C[C@H]3COCCO3)cc21 (single isomer, unassigned) [Example 259, (4R or 4S)-2-{[(2S)-1,4-dioxan-2-yl]methyl}-4-methyl-N-[(1,3-thiazol-2-yl)methyl]-8-(trifluoromethyl)-4,5-dihydro-2H-furo[2,3-g]indazole-7-carboxamide]
12 | 192 nM | Cn1ccc(CNC(=O)c2oc3c(c2C(F)(F)F)-c2nn(C[C@H]4COCCO4)cc2C2(CCC2)C3)n1 [Example 270, 2′-[(2S)-1,4-dioxan-2-ylmethyl]-N-[(1-methyl-1H-pyrazol-3-yl)methyl]-8′-(trifluormethyl)-2′,5′-dihydrospiro[cyclobutan-1,4′-furo[2,3-g]indazol]-7′-carboxamide]
13 | 4 nM | C[C@@H]1Cc2oc(C(=O)NC[C@@H]3CCCO3)c(C(F)(F)F)c2-c2nn(CC3CCN(C(=O)C4CC4)CC3)cc21 (single isomer, unassigned) [Example 290, (4R or 4S)-2-{[1-(cyclopropanecarbonyl)piperidin-4-yl]methyl}-4-methyl-N-{[(2S)-oxolan-2-yl]methyl}-8-(trifluoromethyl)-4,5-dihydro-2H-furo[2,3-g]indazole-7-carboxamide]
14 | 6 nM | O=C(NC[C@@H]1COCCO1)c1oc2c(c1C(F)(F)F)-c1nn(Cc3ccncc3)cc1C1(CC1)C2 [Example 216, N-[(2R)-1,4-Dioxan-2-ylmethyl]-2′-(pyridin-4-ylmethyl)-8′-(trifluormethyl)-2′,5′-dihydrospiro[cyclopropan-1,4′-furo[2,3-g]indazol]-7′-carboxamide]

Further lines, the molecule ahead of its results:

Row | SMILES | IC50
15 | Cc1c(C(=O)NC[C@@H]2COCCO2)oc2c1-c1nn(C[C@@H]3CCO3)cc1CC2 [Example 100, N-[(2R)-1,4-dioxan-2-ylmethyl]-8-methyl-2-[(2S)-oxetan-2-ylmethyl]-4,5-dihydro-2H-furo[2,3-g]indazole-7-carboxamide] | 310 nM
16 | Cc1cc(Cn2cc3c(n2)-c2c(oc(C(=O)NC[C@@H]4COCCO4)c2C)CC3)cc(C)n1 [Example 82, 2-[(2,6-dimethylpyridin-4-yl)methyl]-N-[(2R)-1,4-dioxan-2-ylmethyl]-8-methyl-4,5-dihydro-2H-furo[2,3-g]indazole-7-carboxamide] | 440 nM
17 | O=C(NC[C@@H]1CCCO1)c1oc2c(c1C1CC1)-c1nn(Cc3ccccn3)cc1CC2 [Example 119, 8-cyclopropyl-2-(pyridin-2-ylmethyl)-N-[(2S)-tetrahydrofuran-2-ylmethyl]-4,5-dihydro-2H-furo[2,3-g]indazole-7-carboxamide] | 28 nM
18 | Cc1c(C(=O)NCC2CCC(=O)O2)oc2c1-c1nn(Cc3ccccn3)cc1CC2 (single isomer, unassigned) [Example 39-2] | 7050 nM
19 | Cc1c(C(=O)NC[C@@H]2CCCO2)oc2c1-c1nn(Cc3cccnc3)cc1CC2 [Example 44, 8-methyl-2-(pyridin-3-ylmethyl)-N-[(2S)-tetrahydrofuran-2-ylmethyl]-4,5-dihydro-2H-furo[2,3-g]indazole-7-carboxamide] | 18 nM
20 | Cc1c(C(=O)NCC2CCOCC2)oc2c1-c1nn(Cc3ccccn3)cc1CC2 [Example 171] | 3690 nM
21 | CCOc1cnc(Cn2cc3c(n2)-c2c(oc(C(=O)NC[C@@H]4CCCO4)c2C)CC3)c(Cl)c1 [Example 59, 2-[(3-chloro-5-ethoxypyridin-2-yl)methyl]-8-methyl-N-[(2S)-tetrahydrofuran-2-ylmethyl]-4,5-dihydro-2H-furo[2,3-g]indazole-7-carboxamide] | 70 nM
22 | Cc1cccc(Cn2cc3c(n2)-c2c(oc(C(=O)NCC4CCCO4)c2C)CC3)n1 (single isomer, unassigned) [Example 66-1] | 63 nM
23 | Cc1c(C(=O)NCc2cc(C3CC3)on2)oc2c1-c1nn(CC3COc4ncccc4O3)cc1CC2 (single isomer, unassigned) [Example 50-2] | 17 nM
24 | Cc1ccc(Cn2cc3c(n2)-c2c(oc(C(=O)NC[C@@H]4COCCO4)c2C)CC3)nc1 [Example 65, N-[(2R)-1,4-dioxan-2-ylmethyl]-8-methyl-2-[(5-methylpyridin-2-yl)methyl]-4,5-dihydro-2H-furo[2,3-g]indazole-7-carboxamide] | 26 nM
25 | Cc1cccc(Cn2cc3c(n2)-c2c(oc(C(=O)NCc4cc(C5CC5)on4)c2C)CC3)n1 [Example 68, N-[(5-cyclopropyl-1,2-oxazol-3-yl)methyl]-8-methyl-2-[(6-methylpyridin-2-yl)methyl]-4,5-dihydro-2H-furo[2,3-g]indazole-7-carboxamide] | 170 nM
26 | Cc1c(C(=O)NC[C@@H]2CCCO2)oc2c1-c1nn(CC3(F)CNC3)cc1CC2 [Example 157, 2-[(3-fluoroazetidin-3-yl)methyl]-8-methyl-N-[(2S)-tetrahydrofuran-2-ylmethyl]-4,5-dihydro-2H-furo[2,3-g]indazole-7-carboxamide] | 180 nM
27 | Cc1c(C(=O)NCC2COC2)oc2c1-c1nn(Cc3ccccn3)cc1CC2 [Example 36, 8-methyl-N-(oxetan-3-ylmethyl)-2-(pyridin-2-ylmethyl)-4,5-dihydro-2H-furo[2,3-g]indazole-7-carboxamide] | 1720 nM
28 | CC(=O)N1CC(Cn2cc3c(n2)-c2c(oc(C(=O)NC[C@@H]4CCCO4)c2C)CC3)C1 [Example 164, 2-[(1-acetylazetidin-3-yl)methyl]-8-methyl-N-[(2S)-tetrahydrofuran-2-ylmethyl]-4,5-dihydro-2H-furo[2,3-g]indazole-7-carboxamide] | 980 nM
29 | Cc1c(C(=O)NC[C@@H]2CCCO2)oc2c1-c1nn(CC3(F)CN(S(C)(=O)=O)C3)cc1CC2 [Example 166, 2-{[3-fluoro-1-(methylsulfonyl)azetidin-3-yl]methyl}-8-methyl-N-[(2S)-tetrahydrofuran-2-ylmethyl]-4,5-dihydro-2H-furo[2,3-g]indazole-7-carboxamide] | 110 nM
30 | Cc1c(C(=O)NCc2cc(C3CC3)on2)oc2c1-c1nn(Cc3ccccn3)cc1CC2 [Example 7, N-[(5-cyclopropyl-1,2-oxazol-3-yl)methyl]-8-methyl-2-(pyridin-2-ylmethyl)-4,5-dihydro-2H-furo[2,3-g]indazole-7-carboxamide] | 150 nM
